Among the test systems are Bacillus subtilis 168; Staphylococcus aureus; Pseudomonas aeruginosa; Staphylococcus aureus 1; Escherichia coli B; Escherichia coli BL21AI.
What all share (test): ≥ marks a high value that may be exact or a test limit, other limits are often not marked, values filed in µg/mL are converted to µM
Assay [1] concerns Micrococcus luteus CCM 144.
Assay [2] deals with Staphylococcus aureus ATCC 43300.
Assay [3] has as its system Staphylococcus epidermidis.
The test system of assay [4] is Candida albicans F7-39/IDE99.
Assay [5] has as its system Pseudomonas aeruginosa ATCC 27853.
Assay [6] deals with Fusarium graminearum PH-1.
In assay [7] the test system is Salmonella enterica subsp. enterica serovar Typhimurium LT2.
Assay [8] deals with Escherichia coli NCIMB 11843.
For assay [9], the system named is Klebsiella pneumoniae NCIMB 13218.
The subject of assay [10] is Pseudomonas fluorescens NCIMB 9046.
Assay [11] concerns Staphylococcus aureus SA113.
Assay [12] has as its system Cronobacter muytjensii ATCC 51329.
In assay [13] the test system is Cronobacter sakazakii DSM 4485.
In assay [14] the test system is Staphylococcus aureus Newman.
Assay [15] deals with Staphylococcus aureus NCTC 8325-4.
Assay [16] has as its system Cronobacter sakazakii DPC 6440.
The test system of assay [17] is Staphylococcus aureus RN4220.
The test system of assay [18] is Cronobacter sakazakii ATCC BAA-894.
Assay [19] has as its system Staphylococcus aureus RF122.
Assay [20] has as its system Pseudomonas aeruginosa ATCC 10145.
The subject of assay [21] is Micrococcus luteus ATCC 10240.

Molecules are shown by their SMILES. ≈ marks a conversion by molar mass, not a printed value.

For orientation: MIC means the lowest concentration found to suppress growth. A lower MIC goes with a more susceptible organism. For `CC[C@H](C)[C@H](NC(=O)CN)C(=O)N[C@@H](CC(C)C)C(=O)N[C@@H](CO)C(=O)N[C@@H](CCCCN)C(=O)N[C@@H](CC(C)C)C(=O)N[C@@H](CC(C)C)C(=O)N[C@@H](CCCCN)C(=O)N[C@@H](CCCCN)C(=O)N[C@@H](CC(C)C)C(=O)N[C@@H](CCCCN)C(=O)N[C@@H](CCCCN)C(=O)N[C@H](C(=O)N[C@H](C(=O)N[C@@H](C)C(=O)N[C@@H](CCCCN)C(N)=O)[C@@H](C)CC)[C@@H](C)CC` [GILSKLLKKLKKIIAK], the MIC with Bacillus subtilis 168 stood at 7 µM (≈ 12.6 µg/mL); in the assay with Staphylococcus aureus it was 10 µM (≈ 17.9 µg/mL); in assay [1], 3 µM (≈ 5.38 µg/mL); with Pseudomonas aeruginosa, 8.5 µM (≈ 15.2 µg/mL); in assay [2] it was 23 µM (≈ 41.2 µg/mL); in the assay with Staphylococcus aureus 1 it was 5.9 µM (≈ 10.6 µg/mL). In addition, the MIC is 1.8 µM (≈ 3.23 µg/mL) in assay [3], at least 45 µM in assay [4], 18 µM (≈ 32.3 µg/mL) with Escherichia coli B and 4.5 µM (≈ 8.07 µg/mL) in assay [5].

In the case of `CC[C@H](C)[C@H](NC(=O)CN)C(=O)N[C@@H](CC(C)C)C(=O)N[C@@H](CO)C(=O)N[C@@H](CO)C(=O)N[C@@H](CC(C)C)C(=O)N[C@@H](CC(C)C)C(=O)N[C@@H](CCCCN)C(=O)N[C@@H](CCCCN)C(=O)N[C@@H](CC(C)C)C(=O)N[C@@H](CCCCN)C(=O)N[C@@H](CCCCN)C(=O)N[C@@H](Cc1c[nH]c2ccccc12)C(=O)N[C@H](C(=O)N[C@@H](C)C(=O)N[C@@H](CCCCN)C(N)=O)[C@@H](C)CC` [GILSSLLKKLKKWIAK], the MIC against Bacillus subtilis 168 was determined as 7 µM (≈ 12.8 µg/mL); with Staphylococcus aureus, 4 µM (≈ 7.3 µg/mL); in assay [1], 3 µM (≈ 5.48 µg/mL); with Pseudomonas aeruginosa, 21 µM (≈ 38.3 µg/mL); in assay [2], 8 µM (≈ 14.6 µg/mL); against Staphylococcus aureus 1, 2.6 µM (≈ 4.75 µg/mL). The MIC in assay [3] was 1.6 µM (≈ 2.92 µg/mL); in assay [4], 16 µM (≈ 29.2 µg/mL); in the assay on Escherichia coli B it was 4 µM (≈ 7.3 µg/mL); in assay [5] it was 8 µM (≈ 14.6 µg/mL).

With `CC[C@H](C)[C@H](NC(=O)CN)C(=O)N[C@@H](CCSC)C(=O)N[C@@H](CO)C(=O)N[C@@H](CO)C(=O)N[C@@H](CC(C)C)C(=O)N[C@@H](CCSC)C(=O)N[C@@H](CCCCN)C(=O)N[C@@H](CCCCN)C(=O)N[C@@H](CC(C)C)C(=O)N[C@@H](CCCCN)C(=O)N[C@@H](CCCCN)C(=O)N[C@H](C(=O)N[C@H](C(=O)N[C@@H](C)C(=O)N[C@@H](CCCCN)C(N)=O)[C@@H](C)CC)[C@@H](C)CC` [GIMSSLMKKLKKIIAK], the MIC in the assay with Bacillus subtilis 168 was 7 µM (≈ 12.5 µg/mL); against Staphylococcus aureus, 23 µM (≈ 41.1 µg/mL); in [1] it was 3 µM (≈ 5.37 µg/mL); in the assay on Pseudomonas aeruginosa, 7.4 µM (≈ 13.2 µg/mL); in [2], 32 µM (≈ 57.2 µg/mL); against Staphylococcus aureus 1, 7.6 µM (≈ 13.6 µg/mL). Also, the MIC in assay [3] was 1.9 µM (≈ 3.4 µg/mL); in assay [4], 5.2 µM (≈ 9.3 µg/mL); in the assay with Escherichia coli B, 9 µM (≈ 16.1 µg/mL); in assay [5], 5 µM (≈ 8.94 µg/mL).

With `NCC(=O)N[C@@H](CCCN=C(N)N)C(=O)N[C@H]1CSSC[C@@H](C(=O)O)NC(=O)[C@H](CCCN=C(N)N)NC(=O)[C@H](Cc2ccccc2)NC(=O)[C@H](CC(=O)O)NC(=O)[C@H](CC(=O)O)NC(=O)[C@H](CCCN=C(N)N)NC1=O` [GRCRDDFRC], the MIC in assay [6] is at least 192 µM.

In the case of `NCC(=O)N[C@@H](CCCN=C(N)N)C(=O)N[C@H]1CSSC[C@@H](C(=O)O)NC(=O)[C@H](CCCN=C(N)N)NC(=O)[C@H](CCCN=C(N)N)NC(=O)[C@H](CCCN=C(N)N)NC(=O)[C@H](Cc2ccccc2)NC(=O)CNC(=O)[C@H](CCCN=C(N)N)NC1=O` [GRCRGFRRRC], the MIC in assay [6] was 6 µM (≈ 7.59 µg/mL).

Turning to `CC[C@H](C)[C@H](N)C(=O)N[C@@H](C)C(=O)N[C@@H](C)C(=O)N[C@@H](C)C(=O)NCC(=O)N[C@@H](CC(C)C)C(=O)N1CCC[C@H]1C(=O)N[C@@H](CCC(N)=O)C(=O)N[C@@H](CCC(=O)O)C(=O)O` [IAAAGLPQE], the MIC is at least 2500 µM in assay [7]; at least 2500 µM in assay [8]; at least 1250 µM in assay [9]; at least 2500 µM in assay [10]; at least 1250 µM in [11]; at least 1250 µM in assay [12]. The MIC was at least 1250 µM in assay [13]; at least 1250 µM in assay [14]; at least 1250 µM in assay [15]; at least 625 µM in assay [16]; at least 312 µM in [17]; at least 1250 µM in assay [18]. In addition, the MIC in [19] was at least 312 µM.

Take `CC[C@H](C)[C@H](N)C(=O)N[C@@H](Cc1cnc[nH]1)C(=O)N[C@@H](CCC(N)=O)C(=O)NCC(=O)N[C@@H](CC(C)C)C(=O)N1CCC[C@H]1C(=O)N[C@@H](CCC(N)=O)C(=O)N[C@@H](CCC(=O)O)C(=O)O` [IHQGLPQE]: the MIC in [7], in assay [8], in assay [9], in [10], in assay [11] and in assay [12] was at least 2500 µM throughout. The MIC in assay [13] was at least 2500 µM; in assay [14] it was at least 2500 µM; in [15], at least 2500 µM; in assay [16] it was at least 2500 µM; in assay [17], at least 1250 µM; in assay [18], at least 2500 µM. Further, in assay [19], the MIC was at least 1250 µM.

In assay [20], `C[C@H](NC(=O)[C@H](C)NC(=O)[C@H](CCCCN)NC(=O)[C@H](CCCCN)NC(=O)[C@H](C)NC(=O)[C@H](Cc1ccccc1)NC(=O)[C@H](CCCCN)NC(=O)[C@H](CCCCN)NC(=O)[C@H](C)NC(=O)[C@H](Cc1ccccc1)NC(=O)[C@H](CCCCN)NC(=O)[C@H](CCCCN)NC(=O)[C@H](C)NC(=O)[C@H](Cc1ccccc1)NC(=O)[C@@H](N)CCCCN)C(=O)N[C@@H](CCCCN)C(=O)O` [KFAKKFAKKFAKKAAK] had an MIC of at least 136 µM.

`C[C@H](NC(=O)CNC(=O)[C@@H](N)CCCN=C(N)N)C(=O)N[C@@H](CCCN=C(N)N)C(=O)N[C@@H](CCCN=C(N)N)C(=O)N[C@@H](CCCN=C(N)N)C(=O)O` [RGARRR] gave an MIC in assay [6] of at least 96 µM.

Take `CC[C@H](C)[C@H](NC(=O)[C@H](CCCN=C(N)N)NC(=O)[C@H](CCCN=C(N)N)NC(=O)[C@@H]1CCCN1C(=O)[C@@H]1CCCN1C(=O)[C@H](CCCN=C(N)N)NC(=O)[C@@H]1CCCN1C(=O)[C@H](CCCN=C(N)N)NC(=O)[C@@H]1CCCN1C(=O)[C@H](CC(C)C)NC(=O)[C@H](Cc1ccc(O)cc1)NC(=O)[C@@H]1CCCN1C(=O)[C@@H]1CCCN1C(=O)[C@H](CCCCN)NC(=O)[C@H](CC(=O)O)NC(=O)[C@@H](N)C(C)C)C(=O)N[C@@H](Cc1ccc(O)cc1)C(=O)N[C@@H](CC(N)=O)C(=O)N[C@@H](C)C(N)=O` [VDKPPYLPRPRPPRRIYNA]: the MIC amounted to 13.9 µM (≈ 32 µg/mL) against Escherichia coli BL21AI and 6.94 µM (≈ 16 µg/mL) in assay [21].

Regarding `CC(C)C[C@H](NC(=O)[C@H](CC(C)C)NC(=O)[C@H](CC(N)=O)NC(=O)[C@H](CC(=O)O)NC(=O)[C@H](CC(N)=O)NC(=O)[C@H](CC(C)C)NC(=O)[C@@H](N)C(C)C)C(=O)N[C@@H](CCCN=C(N)N)C(=O)O` [VLNDNLLR], the MIC in assay [7], in [8], in assay [9], in [10], in [11] and in assay [12] was at least 2500 µM each time. Also, the MIC in [13], in assay [14], in assay [15], in assay [16], in assay [17] and in assay [18] was at least 2500 µM in each case. In addition, in assay [19], the MIC is at least 2500 µM.

For the origin of these results see DBAASP.
